Assays:
RAFLS p53 WT = assay: MTT cytotoxicity assay, RAFLS Ctrl p53 WT; type: cell-based, human
Experimental: (§1) Cytotoxicity Assays were performed. […] Data were obtained from triplication independent experiments.

RAFLS p53 N239S = assay: MTT cytotoxicity assay, RAFLS transfected with p53 mutant N239S; type: cell-based, human
Experimental: as §1

RAFLS p53 R213* = assay: MTT cytotoxicity assay, RAFLS transfected with p53 mutant R213*; type: cell-based, human
Experimental: as §1

[1] = MTT cytotoxicity assay, RAFLS; type: cell-based; settings: human
Excerpt: Data were obtained from triplication independent experiments.

P-gp ATPase = target: T1, P-gp ATPase (Homo sapiens, UniProt P08183); assay: Pgp-Glo assay of P-gp ATPase activity; type: biochemical; settings: celastrol 0.5, 1, 2 μM with 200 μM verapamil and ATP, 1 hour, 37° C.
T1 construct: purchased Promega, Madison, Wis
Experimental: The luminescence was then measured by P-gp Glo™ Assay System. Change in luminescence (RLU) represented the activity of P-gp, whereas the activity shown in the control group indicated the basal P-gp ATPase activity.
The luminescence of the sample reflects the ATP level in the sample, which is negatively correlated with the activity of P-gp ATPase and was recorded using the SpectraMax Paradigm Multi-Mode Microplate Reader (Molecular Devices). DMSO-treated activities are expressed as the percentage of basal activity. By comparing basal activity to test compound-treated activities, the compounds can be ranked as stimulating, inhibiting, or having no effect on basal P-gp ATPase activity.

P-gp = assay: Rho123 exclusion assay in P-gp overexpressing RAFLS; type: cell-based, human; settings: relatively low doses of celastrol
Experimental: At the end of the incubation, the accumulation of Rho123 was stopped by washing the cells five times with ice-cold PBS. After cell centrifugation, cell pellets were resuspended in 400 μL PBS. […] All data acquisition and analyses were performed with CellQuest (BD Biosciences, San Jose, Calif., USA) in triplicate in three independent experiments, and the results were shown as the mean of fluorescence intensity.

RASFs [2] = assay: Endogenous LC3-II puncta (autophagy) in RASFs; type: cell-based, human; settings: 1 μM, 10-240 min
Experimental: RASFs were treated with DMSO as a control group or 1 μM celastrol for 10, 30, 60 or 240 min. The cells were then fixed and visualized for endogenous LC3-II expression by fluorescence microscopy using LC3-II antibody plus TRITC-conjugated anti-mouse secondary antibody.
(§2) Data from the bar chart represented the mean values±S.D. of three independent experiments; error bars, S.D. ***, P<0.001.
(§3) In order to determine endogenous expression of LC3-II, RASFs or RAFLS treated with indicated time and concentrations of celastrol (Cel) were fixed and visualised by fluorescence microscopy after staining with an LC3-II antibody followed by TRITC-conjugated anti-mouse secondary antibody.

RAFLS [3] = assay: Endogenous LC3-II puncta (autophagy) in RAFLS; type: cell-based, human; settings: 24 h
Experimental: RAFLS were treated with DMSO as a control group or celastrol at a concentration of 0.25, 0.5, 1 or 2 μM for 24 h.
as §2, §3
To determine the endogenous expression of LC3-II, RAFLS were treated with indicated concentrations of celastrol in the presence or absence of BAPTA/AM (BM) for 24 h. The cells were then fixed and visualised by fluorescence microscopy after staining with an LC3-II antibody followed by TRITC-conjugated anti-mouse secondary antibody.

RAFLS [4] = assay: Annexin V flow cytometry cell death in RAFLS; type: cell-based; settings: 24 h; for celastrol-mediated autophagic cell death with inhibitor: 2 μM celastrol with 5 mM 3-MA or 5 μM BAPTA/AM
Experimental: (§4) Annexin V flow cytometry analysis was applied. Cell death and viability are measured using an Annexin V staining kit (BD Biosciences, San Jose, Calif., USA). Briefly, RAFLS are treated with 0-2 μM celastrol for 24 h. Cells are then harvested and analysed by multiparametric flow cytometry using FITC-Annexin V and Propidium iodide staining (BD Biosciences, San Jose, Calif., USA) according to the manufacturer's instructions. Flow cytometry is then carried out using a FACSCalibur flow cytometer (BD Biosciences, San Jose, Calif., USA). Data acquisition and analysis is performed with CellQuest (BD Biosciences, San Jose, Calif., USA). Data are obtained from three independent experiments.
as §4, with “performed.” for “applied.”, “1 or 2” for “0-2”, “celastrol in the presence or absence of autophagic inhibitor, 3-MA or calcium chelator, BAPTA/AM (BM)” for “celastrol”

RAFLS [5] = assay: Cytosolic calcium level by Fluo-3 flow cytometry in RAFLS; type: cell-based, human; settings: 1 μM 0-24 h, 0.1-2 μM 4 h
Experimental: Flow cytometry analysis was performed to determine the cytosolic calcium level. Intracellular free calcium was measured by a fluorescent dye, Fluo-3. Briefly, RAFLS were washed twice with DMEM media after Celastrol treatment (1 μM) for 4 h. Then cell suspensions were incubated with 5 μM Fluo-3 at 37° C. for 30 min. Then the cells were washed twice with HBSS. After re-suspended cell samples were subjected to FACS analysis. At least 10,000 events were analyzed.

RASFs [6] = assay: Cytosolic Ca2+ dynamic, FLIPR Calcium 6 Assay Kit in RASFs; type: cell-based, human; settings: for calcium dynamic change: 1 μM, compound alone; for celastrol-induced calcium dynamic change under co-/pre-treatment: 1 μM celastrol with 5 μM Compound C or 1 μM thapsigargin
Experimental: Intracellular cytosolic Ca^2+ dynamic was measured using the FLIPR Calcium 6 Assay Kit (Molecular Devices) according to the manufacturer's instructions. In brief, RASFs were plated at a density of 10000 cells per well in black wall/clear bottom 96-multiwell plates from Costar (Tewksbury, Mass., USA) and cultured for 24 h before treatment. After that, calcium 6 reagent was added directly to cells, and cells were incubated for an additional 2 h at 37° C. and 5% CO2. Indicated concentrations of celastrol or thapsigargin were then added to the wells and immediately subjected to data acquisition on the SpectraMax Paradigm Multi-Mode Microplate Reader (Molecular Devices) at room temperature using a 1-s reading interval throughout the experiments.

[7] = tested on: P-gp-over-expressing RAFLS; assay: Annexin V flow cytometry, celastrol with methotrexate in RAFLS; type: cell-based, human; settings: celastrol 0.1-0.2 μM with 450 μM MTX, 24 h
Experimental: Celastrol-induced cell death was measured by flow cytometry analysis after annexin V staining.
as §4, with “performed.” for “applied.”, “Briefly, RAFLS are treated with 0-2 μM celastrol for 24 h.” left out

in vitro = settings: human
Experimental: (§5) All test compounds were dissolved in DMSO at final concentrations of 50 mmol/L and stored at −20° C. before use. Cytotoxicity was assessed using the 3-(4, 5-dimethylthiazol-2-yl)-2, 5-diphenyltetrazolium bromide (MTT) (5.0 mg/ml) assay. Briefly, 4×10^3 RAFLS cells overexpressed with P-gp were seeded per well in 96-well plates before drug treatment. […] Cells without drug treatment were used as control. Subsequently, MTT (10 μL) was added to each well and incubated at 37° C. for 4 hours followed by the addition of 100 μL solubilization buffer (10% SDS in 0.01 mol/L HCl) and overnight incubation. A570 nm was determined from each well on the next day. The percentage of cell viability was calculated using the following formula: Cell viability (%)=Atreated/Acontrol×100. Data were obtained from triplication independent experiments.

[8] = tested on: adjuvant-induced arthritis (AIA) rat model; assay: Adjuvant-induced arthritis (AIA) rat model; settings: AIA rats; for microCT of hind joints: swollen joints and cartilage destruction: left hind paw
[9] = tested on: RAFLS p-gp over expression; assay: MTT cytotoxicity assay, RAFLS overexpressed with P-gp; settings: RAFLS p-gp over expression vs RAFLS
Experimental: as §5

RASFs [10] = assay: LC3 conversion Western blot in RASFs; type: cell-based, human; settings: 2 μM celastrol, 10 μM BAPTA/AM
Experimental: In a detection of autophagic marker protein LC3 conversion, after celastrol treatments with or without the calcium chelator, BAPTA/AM (BM), RASFs were harvested and lysed in RIPA buffer (Cell Signaling Technologies Inc. (Beverly, Mass.). The cell lysates were then resolved by SDS-PAGE. After electrophoresis, the proteins from SDS-PAGE were transferred to nitrocellulose membrane which was then blocked with 5% non-fat dried milk for 60 minutes. The membrane was then incubated with LC3 primary antibodies (1:1000) in TBST overnight at 4° C. After that, the membrane was further incubated with HRP-conjugated secondary antibodies for 60 minutes. Finally, protein bands were visualized by using the ECL Western Blotting Detection Reagents (Invitrogen, Paisley, Scotland, UK).

[11] = Homo sapiens, RA-FLS, 72 h, read-out: mean IC50
[12] = celastrol 1 and 2 mg/kg i.p., 36 days, vs vehicle-treated
[13] = RAFLS cells overexpressing P-gp

T1 sequence (P08183 whole entry): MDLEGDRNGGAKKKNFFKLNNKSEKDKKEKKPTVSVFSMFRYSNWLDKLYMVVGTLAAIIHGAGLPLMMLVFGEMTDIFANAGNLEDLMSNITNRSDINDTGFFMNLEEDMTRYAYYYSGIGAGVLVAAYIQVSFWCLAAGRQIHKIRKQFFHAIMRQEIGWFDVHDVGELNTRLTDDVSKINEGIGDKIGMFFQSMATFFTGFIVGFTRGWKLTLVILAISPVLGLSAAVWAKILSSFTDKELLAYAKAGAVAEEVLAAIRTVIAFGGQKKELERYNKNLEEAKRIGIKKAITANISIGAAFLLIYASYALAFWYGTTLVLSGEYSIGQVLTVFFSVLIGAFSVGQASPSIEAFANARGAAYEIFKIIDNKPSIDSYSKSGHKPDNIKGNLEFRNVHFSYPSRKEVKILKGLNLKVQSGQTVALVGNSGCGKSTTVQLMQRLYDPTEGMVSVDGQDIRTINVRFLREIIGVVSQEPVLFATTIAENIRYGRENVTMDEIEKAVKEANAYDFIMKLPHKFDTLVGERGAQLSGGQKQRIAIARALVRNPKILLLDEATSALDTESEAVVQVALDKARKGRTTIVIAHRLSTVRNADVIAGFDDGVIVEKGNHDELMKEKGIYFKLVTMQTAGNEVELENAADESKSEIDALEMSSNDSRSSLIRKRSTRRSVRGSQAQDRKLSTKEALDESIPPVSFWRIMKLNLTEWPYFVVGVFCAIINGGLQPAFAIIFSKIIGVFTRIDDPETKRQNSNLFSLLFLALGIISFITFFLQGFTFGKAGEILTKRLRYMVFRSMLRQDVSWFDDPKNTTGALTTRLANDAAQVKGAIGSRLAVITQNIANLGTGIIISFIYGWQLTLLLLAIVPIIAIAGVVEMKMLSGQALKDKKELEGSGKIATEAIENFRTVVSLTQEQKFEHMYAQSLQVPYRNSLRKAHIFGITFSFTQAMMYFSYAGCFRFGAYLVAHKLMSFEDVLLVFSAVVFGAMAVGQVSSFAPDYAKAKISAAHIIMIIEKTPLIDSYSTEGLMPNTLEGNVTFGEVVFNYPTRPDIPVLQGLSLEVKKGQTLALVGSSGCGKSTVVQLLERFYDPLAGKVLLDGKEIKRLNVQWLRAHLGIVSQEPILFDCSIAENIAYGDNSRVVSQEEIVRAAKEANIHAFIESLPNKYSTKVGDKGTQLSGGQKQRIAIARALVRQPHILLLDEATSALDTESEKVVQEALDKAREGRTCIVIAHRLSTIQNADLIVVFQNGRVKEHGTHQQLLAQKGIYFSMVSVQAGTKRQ

CC1=C(O)C(=O)C=C2C1=CC=C1[C@@]2(C)CC[C@@]2(C)[C@@H]3C[C@](C)(C(=O)O)CC[C@]3(C)CC[C@]12C [Celastrol, celastrol]
IC50 (RAFLS p53 WT; [11]): 0.996 µM | Resistant factor, RF (RAFLS p53 WT; RAFLS Ctrl p53 WT (reference)): RF: 1 | IC50 (RAFLS p53 N239S; [11]): 1.01 µM | Resistant factor, RF (RAFLS p53 N239S; RAFLS p53 N239S vs p53 WT): RF: 1.01 | IC50 (RAFLS p53 R213*; [11]): 0.722 µM | Resistant factor, RF (RAFLS p53 R213*; RAFLS p53 R213* vs p53 WT): RF: 0.72 | IC50 at 72 h [1]: 1.3 µM | verapamil-activated P-gp activity (P-gp ATPase): directly suppresses the activated form of P-gp in dose-dependently manner | Rho123 accumulation in P-gp overexpressing RAFLS (P-gp): gradually increased Rho123 accumulation in a dose-dependent manner | autophagy induction, endogenous LC3-II puncta (RASFs [2]): induced autophagy in time-dependent manner | autophagy induction, endogenous LC3-II puncta (RAFLS [3]; 0.25-2 μM): dose-dependent autophagy induction | cell death (cytotoxicity), annexin V (RAFLS [4]; 0.25-2 μM): dose-dependent cytotoxicity | calcium mobilization (Fluo-3) (RAFLS [5]): time and dose-dependently disturbs calcium homeostasis | calcium dynamic change (RASFs [6]): stimulated relative weak calcium dynamic | MTX-mediated cell death (sensitization) [7]: potentiating the toxicity of MTX | IC50 at 72 h (in vitro): 1.45 µM | erythrocyte sedimentation rate (ESR) [8]: down-regulated | body weight or organ weight ([8]; 36 days): without impairment | arthritic scores [8, 12]: significantly reduced | hind paw volume [8, 12]: significantly reduced | microCT of hind joints: swollen joints and cartilage destruction [8]: markedly improved | Resistant Factor [9]: 1.12

COc1cc2c(c(OC)c1OC)-c1ccc(OC)c(=O)cc1[C@@H](NC(C)=O)CC2 [Colchicine, colchicine]
IC50 at 72 h [1]: 11.3 µM | IC50 at 72 h (in vitro): 46 µM | Resistant Factor [9]: 4.07

c1cc(-c2cnn3cc(-c4ccc(OCCN5CCCCC5)cc4)cnc23)ccn1 [AMPK inhibitor]
celastrol-induced calcium dynamic change under co-/pre-treatment (RASFs [6]): no inhibitory effect

CC(=O)OCOC(=O)CN(CC(=O)OCOC(C)=O)c1ccccc1OCCOc1ccccc1N(CC(=O)OCOC(C)=O)CC(=O)OCOC(C)=O [BAPTA/AM, reference compound]
celastrol-induced endogenous LC3-II puncta formation with co-treatment (RAFLS [3]; 1 μM celastrol, 10 μM BAPTA/AM): dramatically suppressed | celastrol-mediated autophagic cell death with inhibitor (RAFLS [4]): completely abolished | LC3-II conversion with co-treatment (RASFs [10]): inhibited LC3-II conversion | anti-arthritic effect of celastrol with calcium chelator ([8]; celastrol 1 mg/kg + BAPTA/AM 3.5 mg/kg): retarded the anti-arthritic effect of celastrol

C[C@@H]1C[C@H]2[C@@H]3CCC4=CC(=O)C=C[C@]4(C)[C@@]3(F)[C@@H](O)C[C@]2(C)[C@@]1(O)C(=O)CO [Dexamethasone, dexamethasone]
IC50 at 72 h ([1]; RAFLS cells): 600 µM | IC50 at 72 h (in vitro; [13]): > 2000 µM

CN(Cc1cnc2nc(N)nc(N)c2n1)c1ccc(C(=O)N[C@@H](CCC(=O)O)C(=O)O)cc1 [Methotrexate, methotrexate]
IC50 at 72 h ([1]; RAFLS cells): 219 µM | IC50 at 72 h (in vitro; [13]): 838 µM | erythrocyte sedimentation rate (ESR) [8]: down-regulated | microCT of hind joints: swollen joints and cartilage destruction [8]: markedly improved | Resistant Factor [9]: 3.83

C[C@]12C=CC(=O)C=C1CC[C@@H]1[C@@H]2[C@@H](O)C[C@@]2(C)[C@H]1CC[C@]2(O)C(=O)CO [Prednisolone, prednisolone]
IC50 at 72 h ([1]; RAFLS cells): 123 µM | IC50 at 72 h (in vitro; [13]): 216 µM

C/C=C(/C)C(=O)O[C@H]1C(C)=C2[C@H]([C@@H]1OC(=O)CCCCCCC)[C@@](C)(OC(C)=O)C[C@H](OC(=O)CCC)[C@@]1(O)[C@H]2OC(=O)[C@@]1(C)O [thapsigargin]
celastrol-induced calcium dynamic change under co-/pre-treatment (RASFs [6]): extremely low response in calcium mobilization upon celastrol treatment | calcium dynamic change (RASFs [6]): significantly induced the calcium dynamic change

Cn1cnc(N)c2ncnc1-2 [3-MA, 3-methyladenine]
celastrol-mediated autophagic cell death with inhibitor (RAFLS [4]): completely abolished

From patent publication US10688105B2, “Method of treating refractory rheumatoid arthritis associated with p53 mutation” (priority 2017, dated 2020)
